Two compounds from patent publication US20110106000A1, “Nitric Oxide Compositions and Devices and Methods for Cosmesis” (MICROPHARMA LIMITED, priority 2008, published 2011) can be followed below.

One test deals with porcine liver esterase. The test can be described thus: Enzymatic generation of gNO with porcine liver esterase, sodium nitrite and ester substrates. Format: biochemical. Particulars: for substrate ranking for porcine liver esterase (gNO generation): FIG. 31, measured hourly; for gNO production: porcine liver esterase, sodium nitrite. How it is done: (§1) Enzymatic Generation of gNO: A 200 μl reaction solution was prepared by combining water, an acetate ester (ethyl acetate, isobutyl acetate, octyl acetate) or a triglyceride such as triacetin (glyceryl triacetate), sodium nitrite, and an esterase (porcine liver esterase, rhyzopus oryzae esterase) or a lipase (porcine pancreatic lipase, candida rugosa lipase). The solution was then added to a 2 ml vial, which was closed tightly with a septum cap. The head gas was sampled every hour from the reaction containing vials in order to determine gNO concentrations.

The test system of the next test is candida rugosa lipase. The test can be described thus: Enzymatic generation of gNO with candida rugosa lipase, sodium nitrite and ester substrates. Format: biochemical. How it is done:
as §1

Where only a bound is given, the exact number is not on record here.

Regarding `CCOC(C)=O` [ethyl acetate], the “substrate ranking for porcine liver esterase (gNO generation)” value with porcine liver esterase is recorded as “best substrates”.

In the case of `CC(=O)OCC(COC(C)=O)OC(C)=O` [triacetin, glyceryl triacetate], the gNO production with porcine liver esterase (0.5% triacetin in the assay) is given as not above 200 ppmV; in the test on porcine liver esterase (1% triacetin in the assay), “up to 250 ppmV”; in the test on porcine liver esterase (over the 6 hour experiment) it was more than 350 ppmV; in the test with candida rugosa lipase (candida rugosa lipase, sodium nitrite, one hour after the reaction was started), not below 200 ppmV. For the same compound, the “substrate ranking for porcine liver esterase (gNO generation)” value in the test with porcine liver esterase is given as “best substrates”. Further, the “nitric oxide production (in words)” value in the test with candida rugosa lipase (candida rugosa lipase tested against four substrates) is “able to produce high amounts of nitric oxide”.
